This is an account of results in US11807608B2, “Polymerizable compounds with one or more surfactant-like properties” (University of Manitoba, priority 2017, dated 2023).

The structures appear in SMILES notation.

The nature of this series: Surface tension by Wilhelmy plate (KRUSS K100 Tensiometer, ASTM D1331-14). Format: physicochemical. The source says: A KRUSS K100 Tensiometer was used to determine the surface tension of a sample of the compounds in liquid water at different concentrations. The concentrations tested were 0.5%, 1.0%, 3.0%, 5.0% and 10%. A platinum plate with dimensions of about 19.9 mm×about 0.2 mm×about 10 mm (width, thickness and height respectfully) was attached to a sensitive mass balance. The sample was raised to the fixed platinum plate at a rate of 10 mm/min with a detection sensitivity of 0.005 g until the liquid sample reached the bottom of the plate. The plate was then immersed in the liquid sample at a depth of 2 mm for 60-150 seconds and any change in mass was recorded by the equipment as a function of time. Force was determined using the equation f=ma.
The surface tension (γ) of each liquid sample was calculated from the force measurement (f) using the equation outlined in Method C: Surface Tension by Wilhelmy plate, ASTM D1331-14.
[formula] where (l) is the length and (t) is the thickness of the plate. The contact angle was assumed to be 0. The test results describe a trend and general indication of the surfactant properties of each compound tested.

Setting [1] is: 0.5% in water, 150 second measurement.
[2] abbreviates: 1.0% in water, 150 second measurement.
Setting [3] is: 3.0% in water, 150 second measurement.
[4] abbreviates: 5.0% in water, 150 second measurement.
The mark [5] stands for this setting: 10.0% in water, 150 second measurement.

As for `C=C(C)C(=O)NCCC[N+](C)(C)CCCCCCCCCC[N+](C)(C)C1CC(C)(C)NC(C)(C)C1.[Br-].[Br-]` [Formula 5, PIP-C10-C3-methyl, methyl, acrylamide], the “Surface Tension Mean” value reads like this: (0.5% in water, 60 second measurement) 36.93 mN/m; (1.0% in water, 60 second measurement) 32.55 mN/m; (3.0% in water, 60 second measurement) 31.23 mN/m; (5.0% in water, 60 second measurement) 30.28 mN/m; (10.0% in water, 60 second measurement) 29.57 mN/m.
As for `C=C(C)C(=O)OCCCCCCCCCCC[N+](C)(C)C1CC(C)(C)NC(C)(C)C1.[Br-]` [Formula 9], the “Surface Tension Mean” value reads like this: under setting [1], 37.16 mN/m; under setting [2], 36.19 mN/m; under setting [3], 35.80 mN/m; under setting [4], 35.84 mN/m; under setting [5], 30.44 mN/m.
Take `C=C(C)C(=O)OCC[N+](C)(C)CCCCCCCCCC[N+](C)(C)C1CC(C)(C)NC(C)(C)C1.[Br-].[Br-]` [Formula 6]: the “Surface Tension Mean” value reads like this: under setting [1], 47.18 mN/m; under setting [2], 39.51 mN/m; under setting [3], 36.93 mN/m; under setting [4], 35.50 mN/m; under setting [5], 36.39 mN/m.
